Biological target: pro-protein convertase of the subtype nine binding to recombinant LDLR-AB domain (Homo sapiens, UniProt Q8NBP7)
Test: in vitro quantitative solid phase binding assay (ELISA) of the subtype nine pro-protein convertase to immobilized LDLR
Conditions: for inhibition at 5 µM: Concentration 5 μM
Protocol: The in vitro binding assay described hereinafter is a quantitative solid phase binding assay for determining the efficacy of the compounds. Plates were pre-coated with a recombinant LDLR-AB domain, which binds to the gene pro-protein convertase of the subtype nine. Test compound at different concentrations was added to the subtype gene and added to LDLR immobilized on the wells. The amount of bound gene is measured by binding it with biotinylated anti-His-tag monoclonal antibody, followed by binding with horseradish peroxidase conjugated streptavidin substrate. The color was quantified by ELISA reader at […] which reflects the relative amount of “the gene” that binds to LDLR in presence and absence of the inhibitor. EC50 values were calculated by nonlinear regression analysis using graph pad prism software. Each concentration point represents values in duplicates.

Chain of pro-protein convertase of the subtype nine binding to recombinant LDLR-AB domain (Q8NBP7 153-692): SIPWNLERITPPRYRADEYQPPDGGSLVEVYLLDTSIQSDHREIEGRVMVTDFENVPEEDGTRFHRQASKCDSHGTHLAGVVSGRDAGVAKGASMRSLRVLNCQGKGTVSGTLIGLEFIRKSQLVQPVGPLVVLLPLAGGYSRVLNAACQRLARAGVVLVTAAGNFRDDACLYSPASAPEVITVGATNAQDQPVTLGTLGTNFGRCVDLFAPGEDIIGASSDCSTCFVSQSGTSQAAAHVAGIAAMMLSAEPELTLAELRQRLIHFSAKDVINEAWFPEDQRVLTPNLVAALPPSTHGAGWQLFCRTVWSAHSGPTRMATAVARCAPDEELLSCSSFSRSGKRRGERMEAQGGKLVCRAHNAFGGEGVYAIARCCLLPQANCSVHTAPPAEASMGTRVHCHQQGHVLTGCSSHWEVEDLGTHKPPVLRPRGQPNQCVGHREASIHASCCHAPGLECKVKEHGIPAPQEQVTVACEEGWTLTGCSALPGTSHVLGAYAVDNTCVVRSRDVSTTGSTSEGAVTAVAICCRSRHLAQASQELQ
Chain of pro-protein convertase of the subtype nine binding to recombinant LDLR-AB domain (Q8NBP7 31-152 partner limits assumed): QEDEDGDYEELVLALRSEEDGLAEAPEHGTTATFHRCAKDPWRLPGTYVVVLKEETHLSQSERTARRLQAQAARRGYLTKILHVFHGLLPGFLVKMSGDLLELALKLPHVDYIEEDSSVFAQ

Q: With `CC(=NOCc1ccc(C(F)(F)F)cc1)c1ccc(NCC(=O)NCC2CCOCC2)nc1` [Example 4, N-((tetrahydro-2H-pyran-4-yl)methyl)-2-((5-(1-(((4-(trifluoromethyl)benzyl)oxy)imino)ethyl)pyridin-2-yl)amino)acetamide] as the compound, how does the inhibition at 1 µM (Concentration 1 μM) read?
A: 34%

Q: What about the inhibition at 10 µM (Concentration 10 μM) of the same compound?
A: 39%

Q: And the inhibition at 100 µM (Concentration 100 μM)?
A: 51%

Q: What does the source list for `CCC(=NOCc1ccc(C(F)(F)F)cc1)c1ccc(NCC(=O)NCC2CCOCC2)cc1` [Example 5, N-((tetrahydro-2H-pyran-4-yl)methyl)-2-((4-(1-(((4-(trifluoromethyl)benzyl)oxy)imino)propyl)phenyl)amino)acetamide]?
A: inhibition at 1 µM (Concentration 1 μM): 34%; inhibition at 10 µM (Concentration 10 μM): 40%; inhibition at 100 µM (Concentration 100 μM): 50%

Q: With `Cc1cc(C(Cc2ccccc2)=NOCc2ccc(C(F)(F)F)cc2)ccc1OCC(=O)NCC1CCOCC1` [Example 10, 2-(2-methyl-4-(2-phenyl-1-(((4-(trifluoromethyl)benzyl)oxy)imino)ethyl)phenoxy)-N-((tetrahydro-2H-pyran-4-yl)methyl)acetamide] as the compound, how does the inhibition at 1 µM (Concentration 1 μM) read?
A: 3%

Q: What about the inhibition at 5 µM of the same compound?
A: 18%

Q: What about the inhibition at 10 µM (Concentration 10 μM) of the same compound?
A: 35%

Q: What about the inhibition at 100 µM (Concentration 100 μM) of the same compound?
A: 51%

Q: With `O=C(COc1ccc(C(Cc2ccccc2)=NOCc2ccc(C(F)(F)F)cc2)cc1)NCC1CCOCC1` [Example 11, 2-(4-(2-phenyl-1-(((4-(trifluoromethyl)benzyl)oxy)imino)ethyl)phenoxy)-N-((tetrahydro-2H-pyran-4-yl)methyl)acetamide] as the compound, how does the inhibition at 1 µM (Concentration 1 μM) read?
A: 20%

Q: What about the inhibition at 5 µM of the same compound?
A: 23%

Q: What about the inhibition at 10 µM (Concentration 10 μM) of the same compound?
A: 49%

Q: And the inhibition at 100 µM (Concentration 100 μM)?
A: 61%

Q: What does the source list for `O=C(COc1ccc(C(Cc2ccccc2)=NOCc2cccc(C(F)(F)F)c2)cc1)NCC1CCOCC1` [Example 12, 2-(4-(2-phenyl-1-(((3-(trifluoromethyl)benzyl)oxy)imino)ethyl)phenoxy)-N-((tetrahydro-2H-pyran-4-yl)methyl)acetamide]?
A: inhibition at 1 µM (Concentration 1 μM): 19%; inhibition at 10 µM (Concentration 10 μM): 55%; inhibition at 100 µM (Concentration 100 μM): 79%

Q: Which inhibition at 1 µM (Concentration 1 μM) does the source give for `O=C(COc1ccc(C(Cc2ccncc2)=NOCc2ccc(C(F)(F)F)cc2)cc1)NCC1CCOCC1` [Example 13, 2-(4-(2-(pyridin-4-yl)-1-(((4-(trifluoromethyl)benzyl)oxy)imino)ethyl)phenoxy)-N-((tetrahydro-2H-pyran-4-yl)methyl)acetamide] here?
A: 22%

Q: And the inhibition at 10 µM (Concentration 10 μM)?
A: 32%

Q: And the inhibition at 100 µM (Concentration 100 μM)?
A: 48%

Q: What does the source list for `O=C(COc1ccc(C(CN2CCOCC2)=NOCc2ccc(C(F)(F)F)cc2)cc1)NCC1CCOCC1` [Example 14, 2-(4-(2-morpholino-1-(((4-(trifluoromethyl)benzyl)oxy)imino)ethyl)phenoxy)-N-((tetrahydro-2H-pyran-4-yl)methyl)acetamide]?
A: inhibition at 1 µM (Concentration 1 μM): 15%; inhibition at 10 µM (Concentration 10 μM): 31%; inhibition at 100 µM (Concentration 100 μM): 41%

Q: Which inhibition at 1 µM (Concentration 1 μM) does the source give for `O=C(COc1ccc(C(CN2CCSCC2)=NOCc2ccc(C(F)(F)F)cc2)cc1)NCC1CCOCC1` [Example 15, N-((tetrahydro-2H-pyran-4-yl)methyl)-2-(4-(2-thiomorpholino-1-(((4-(trifluoromethyl)benzyl)oxy)imino)ethyl)phenoxy)acetamide] here?
A: 25%

Q: What about the inhibition at 10 µM (Concentration 10 μM) of the same compound?
A: 37%

Q: What about the inhibition at 100 µM (Concentration 100 μM) of the same compound?
A: 39%

Q: Which inhibition at 1 µM (Concentration 1 μM) does the source give for `Cc1cc(C(Cc2ccsc2)=NOCc2ccc(C(F)(F)F)cc2)ccc1OCC(=O)NCC1CCOCC1` [Example 16, 2-(2-methyl-4-(2-(thiophen-3-yl)-1-(((4-(trifluoromethyl)benzyl)oxy)imino)ethyl)phenoxy)-N-((tetrahydro-2H-pyran-4-yl)methyl)acetamide] here?
A: 10%

Q: What about the inhibition at 5 µM of the same compound?
A: 21%

Q: What about the inhibition at 10 µM (Concentration 10 μM) of the same compound?
A: 35%

Q: And the inhibition at 100 µM (Concentration 100 μM)?
A: 61%

Q: For `O=C(COc1ccc(C=NOCc2ccc(C(F)(F)F)cc2)cc1)NCC1CCOCC1` [Example 17, N-((tetrahydro-2H-pyran-4-yl)methyl)-2-(4-((((4-(trifluoromethyl)benzyl)oxy)imino)methyl)phenoxy)acetamide], which inhibition at 1 µM (Concentration 1 μM) is on record?
A: 13%

Q: And the inhibition at 10 µM (Concentration 10 μM)?
A: 19%

Q: And the inhibition at 100 µM (Concentration 100 μM)?
A: 44%

Q: Which inhibition at 10 µM (Concentration 10 μM) does the source give for `O=C(COc1ccc(C=NOCc2ccc(C(F)(F)F)cc2)cn1)NCC1CCOCC1` [Example 19, N-((tetrahydro-2H-pyran-4-yl)methyl)-2-((5-((((4-(trifluoromethyl)benzyl)oxy)imino)methyl)pyridin-2-yl)oxy)acetamide] here?
A: 40%

Q: What about the inhibition at 100 µM (Concentration 100 μM) of the same compound?
A: 46%

Q: `CC(=NOCc1ccc(C(F)(F)F)cc1)c1ccc(NCC(=O)NCC2CCOCC2)cc1` [Example 20, N-((tetrahydro-2H-pyran-4-yl)methyl)-2-((4-(1-(((4-(trifluoromethyl)benzyl)oxy)imino)ethyl)phenyl)amino)acetamide] was tested. Which inhibition at 1 µM (Concentration 1 μM) did it give?
A: 20%

Q: And the inhibition at 10 µM (Concentration 10 μM)?
A: 34%

Q: What about the inhibition at 100 µM (Concentration 100 μM) of the same compound?
A: 57%

Q: `CC(=NOCc1ccc(C#N)cc1)c1ccc(OCC(=O)NCC2CCOCC2)nc1` [Example 21, 2-((5-(1-(((4-cyanobenzyl)oxy)imino)ethyl)pyridin-2-yl)oxy)-N-((tetrahydro-2H-pyran-4-yl)methyl)acetamide] was tested. Which inhibition at 100 µM (Concentration 100 μM) did it give?
A: 15%

Q: How did the inhibition at 1 µM (Concentration 1 μM) turn out when `CCC(=NOCc1ccc(C(F)(F)F)cc1)c1ccc(NCC(=O)NCC2CCOCC2)nc1` [Example 23, N-((tetrahydro-2H-pyran-4-yl)methyl)-2-((5-(1-(((4-(trifluoromethyl)benzyl)oxy)imino)propyl)pyridin-2-yl)amino)acetamide] was run?
A: 30%

Q: What about the inhibition at 10 µM (Concentration 10 μM) of the same compound?
A: 42%

Q: What about the inhibition at 100 µM (Concentration 100 μM) of the same compound?
A: 47%

Q: How did the inhibition at 1 µM (Concentration 1 μM) turn out when `CCC(=NOCc1ccccc1)c1ccc(OCC(=O)NCC2CCOCC2)nc1` [Example 24, 2-((5-(1-((benzyloxy)imino)propyl)pyridin-2-yl)oxy)-N-((tetrahydro-2H-pyran-4-yl)methyl)acetamide] was run?
A: 24%

Q: And the inhibition at 10 µM (Concentration 10 μM)?
A: 28%

Q: And the inhibition at 100 µM (Concentration 100 μM)?
A: 52%

Q: Which inhibition at 1 µM (Concentration 1 μM) does the source give for `CCC(=NOCc1ccc(C)cc1)c1ccc(OCC(=O)NCC2CCOCC2)nc1` [Example 25, 2-((5-(1-(((4-methylbenzyl)oxy)imino)propyl)pyridin-2-yl)oxy)-N-((tetrahydro-2H-pyran-4-yl)methyl)acetamide] here?
A: 28%

Q: And the inhibition at 10 µM (Concentration 10 μM)?
A: 34%

Q: And the inhibition at 100 µM (Concentration 100 μM)?
A: 50%

Q: How did the inhibition at 1 µM (Concentration 1 μM) turn out when `CCC(=NOCc1ccc(OC)cc1)c1ccc(OCC(=O)NCC2CCOCC2)nc1` [Example 26, 2-((5-(1-(((4-methoxybenzyl)oxy)imino)propyl)pyridin-2-yl)oxy)-N-((tetrahydro-2H-pyran-4-yl)methyl)acetamide] was run?
A: 45%

Q: And the inhibition at 10 µM (Concentration 10 μM)?
A: 45%

Q: And the inhibition at 100 µM (Concentration 100 μM)?
A: 52%

Q: Which inhibition at 1 µM (Concentration 1 μM) does the source give for `CCC(=NOCc1ccc(F)cc1)c1ccc(OCC(=O)NCC2CCOCC2)nc1` [Example 27, 2-((5-(1-(((4-fluorobenzyl)oxy)imino)propyl)pyridin-2-yl)oxy)-N-((tetrahydro-2H-pyran-4-yl)methyl)acetamide] here?
A: 10%

Q: And the inhibition at 10 µM (Concentration 10 μM)?
A: 15%

Q: And the inhibition at 100 µM (Concentration 100 μM)?
A: 29%

Q: With `CCC(=NOCc1ccc(C#N)cc1)c1ccc(OCC(=O)NCC2CCOCC2)nc1` [Example 28, 2-((5-(1-(((4-cyanobenzyl)oxy)imino)propyl)pyridin-2-yl)oxy)-N-((tetrahydro-2H-pyran-4-yl)methyl)acetamide] as the compound, how does the inhibition at 100 µM (Concentration 100 μM) read?
A: 23%

Q: Which inhibition at 100 µM (Concentration 100 μM) does the source give for `COCC(=NOCc1ccc(C(F)(F)F)cc1)c1ccc(OCC(=O)NCC2CCOCC2)cc1` [Example 30, 2-(4-(2-methoxy-1-(((4-(trifluoromethyl)benzyl)oxy)imino)ethyl)phenoxy)-N-((tetrahydro-2H-pyran-4-yl)methyl)acetamide] here?
A: 36%

Q: Which results are given for `Cc1ccc(CON=C(Cc2ccccc2)c2ccc(OCC(=O)NCC3CCOCC3)c(C)c2)cc1` [Example 32, 2-(2-methyl-4-(1-(((4-methylbenzyl)oxy)imino)-2-phenylethyl)phenoxy)-N-((tetrahydro-2H-pyran-4-yl)methyl)acetamide]?
A: inhibition at 1 µM (Concentration 1 μM): 14%; inhibition at 10 µM (Concentration 10 μM): 35%; inhibition at 100 µM (Concentration 100 μM): 48%

Q: Which inhibition at 1 µM (Concentration 1 μM) does the source give for `Cc1ccc(CON=C(Cc2ccccc2)c2ccc(OCC(=O)NCC3CCOCC3)cc2)cc1` [Example 33, 2-(4-(1-(((4-methylbenzyl)oxy)imino)-2-phenylethyl)phenoxy)-N-((tetrahydro-2H-pyran-4-yl)methyl)acetamide] here?
A: 10%

Q: And the inhibition at 10 µM (Concentration 10 μM)?
A: 10%

Q: What about the inhibition at 100 µM (Concentration 100 μM) of the same compound?
A: 28%

Q: How did the inhibition at 1 µM (Concentration 1 μM) turn out when `Cc1cc(C(Cc2ccccc2)=NOCc2ccc(F)cc2)ccc1OCC(=O)NCC1CCOCC1` [Example 34, 2-(4-(1-(((4-fluorobenzyl)oxy)imino)-2-phenylethyl)-2-methylphenoxy)-N-((tetrahydro-2H-pyran-4-yl)methyl)acetamide] was run?
A: 7%

Q: And the inhibition at 10 µM (Concentration 10 μM)?
A: 13%

Q: And the inhibition at 100 µM (Concentration 100 μM)?
A: 32%

Q: Which inhibition at 1 µM (Concentration 1 μM) does the source give for `O=C(COc1ccc(C(Cc2ccccc2)=NOCc2ccc(F)cc2)cc1)NCC1CCOCC1` [Example 35, 2-(4-(1-(((4-fluorobenzyl)oxy)imino)-2-phenylethyl)phenoxy)-N-((tetrahydro-2H-pyran-4-yl)methyl)acetamide] here?
A: 22%

Q: What about the inhibition at 10 µM (Concentration 10 μM) of the same compound?
A: 13%

Q: And the inhibition at 100 µM (Concentration 100 μM)?
A: 25%

Q: For `Cc1cc(C(Cc2ccccc2)=NOCc2ccc(Cl)cc2)ccc1OCC(=O)NCC1CCOCC1` [Example 36], which “% Inhibition” value (Concentration 1 μM) is on record?
A: 6%

Q: What about the “% Inhibition” value (Concentration 10 μM) of the same compound?
A: 9%

Q: What about the “% Inhibition” value (Concentration 100 μM) of the same compound?
A: 36%

Q: What does the source list for `O=C(COc1ccc(C(Cc2ccccc2)=NOCc2ccc(Cl)cc2)cc1)NCC1CCOCC1` [Example 37, 2-(4-(1-(((4-chlorobenzyl)oxy)imino)-2-phenylethyl)phenoxy)-N-((tetrahydro-2H-pyran-4-yl)methyl)acetamide]?
A: inhibition at 1 µM (Concentration 1 μM): 20%; inhibition at 10 µM (Concentration 10 μM): 26%; inhibition at 100 µM (Concentration 100 μM): 28%

Q: With `Cc1cc(C(Cc2ccccc2)=NOCc2ccc(OC(F)(F)F)cc2)ccc1OCC(=O)NCC1CCOCC1` [Example 38, 2-(2-methyl-4-(2-phenyl-1-(((4-(trifluoromethoxy)benzyl)oxy)imino)ethyl)phenoxy)-N-((tetrahydro-2H-pyran-4-yl)methyl)acetamide] as the compound, how does the inhibition at 10 µM (Concentration 10 μM) read?
A: 19%

Q: And the inhibition at 100 µM (Concentration 100 μM)?
A: 38%

— patent publication US8822414B2, “Heterocyclic compounds suitable for the treatment of dyslipidemia” (Cadila Healthcare Limited, priority 2010, dated 2014)
